# Tests used:
# Experiment in all cases: relative viability (nuclei count vs DMSO), 5 days (fraction); higher = more cells survive
# [1] = system: NCI-H647
# Procedure, shortened: (§1)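 Relative viability divides the nuclei count in treated wells by that in vehicle wells. Lung cancer cell lines were seeded in 1536-well plates, dosed by pin tool the next day, and fixed and stained after 5 days in one step with final 0.05% Triton X-100, 1% formaldehyde and 1 ug/ml Hoechst. Dosing was a single drug or a fixed anchor-drug dose plus five library-drug doses (not always all listed) in √10 steps, and values are medians of duplicate plates imaged at 4×.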
# [2] = system: NCI-H358
# Procedure, shortened: as §1
# [3] = system: EPLC-272H
# Procedure, shortened: as §1
# [4] = system: A-427
# Procedure, shortened: as §1
# [5] = system: LK-2
# Procedure, shortened: as §1
# [6] = system: NCI-H460
# Procedure, shortened: as §1
# [7] = system: NCI-H2405
# Procedure, shortened: as §1
# [8] = system: NCI-H1755
# Procedure, shortened: as §1
# [9] = system: RERF-LC-KJ
# Procedure, shortened: as §1
# [10] = system: SW 900
# Procedure, shortened: as §1
# [11] = system: NCI-H1734
# Procedure, shortened: as §1
# [12] = system: LU99A
# Procedure, shortened: as §1
# [13] = system: ChaGo-K-1
# Procedure, shortened: as §1
# [14] = system: EMC-BAC-2
# Procedure, shortened: as §1
# [15] = system: NCI-H596
# Procedure, shortened: as §1
# [16] = system: NCI-H1792
# Procedure, shortened: as §1
# [17] = system: NCI-H1650
# Procedure, shortened: as §1
# [18] = system: NCI-H1993
# Procedure, shortened: as §1
# [19] = system: NCI-H522
# Procedure, shortened: as §1
# [20] = system: EKVX
# Procedure, shortened: as §1
# [21] = system: HARA
# Procedure, shortened: as §1
# [22] = system: COR-L 105
# Procedure, shortened: as §1
structure (smiles),measurement,setting,value
Cc1csc(=NC2CCCCC2)n1/N=C/c1ccc(O)c(O)c1O [MIM1] + Cc1nc(Nc2ncc(C(=O)Nc3c(C)cccc3Cl)s2)cc(N2CCN(CCO)CC2)n1 [Dasatinib] (partner 0.075 µM),relative viability,[1]; first compound 0.2 µM,0.232
same,relative viability,[1]; first compound 0.6325 µM,0.225
same,relative viability,[1]; first compound 6.325 µM,0.145
same,relative viability,[1]; first compound 20 µM,0.0584
same,relative viability,[2]; first compound 0.2 µM,0.182
same,relative viability,[2]; first compound 0.6325 µM,0.174
same,relative viability,[2]; first compound 2 µM,0.179
same,relative viability,[2]; first compound 6.325 µM,0.173
same,relative viability,[2]; first compound 20 µM,0.126
same,relative viability,[3]; first compound 0.2 µM,0.406
same,relative viability,[3]; first compound 0.6325 µM,0.305
same,relative viability,[3]; first compound 2 µM,0.328
same,relative viability,[3]; first compound 6.325 µM,0.312
same,relative viability,[3]; first compound 20 µM,0.0989
same,relative viability,[4]; first compound 0.2 µM,0.664
same,relative viability,[4]; first compound 2 µM,0.716
same,relative viability,[4]; first compound 6.325 µM,0.573
same,relative viability,[4]; first compound 20 µM,0.178
same,relative viability,[5]; first compound 0.2 µM,0.358
same,relative viability,[5]; first compound 2 µM,0.202
same,relative viability,[5]; first compound 6.325 µM,0.269
same,relative viability,[5]; first compound 20 µM,0.176
same,relative viability,[6]; first compound 0.2 µM,0.508
same,relative viability,[6]; first compound 0.6325 µM,0.42
same,relative viability,[6]; first compound 2 µM,0.467
same,relative viability,[6]; first compound 6.325 µM,0.327
same,relative viability,[6]; first compound 20 µM,0.044
same,relative viability,[7]; first compound 0.2 µM,0.21
same,relative viability,[7]; first compound 0.6325 µM,0.225
same,relative viability,[7]; first compound 2 µM,0.209
same,relative viability,[7]; first compound 6.325 µM,0.205
same,relative viability,[7]; first compound 20 µM,0.48
same,relative viability,[8]; first compound 0.2 µM,0.467
same,relative viability,[8]; first compound 0.6325 µM,0.442
same,relative viability,[8]; first compound 2 µM,0.424
same,relative viability,[8]; first compound 6.325 µM,0.391
same,relative viability,[8]; first compound 20 µM,0.23
same,relative viability,[9]; first compound 0.2 µM,0.632
same,relative viability,[9]; first compound 0.6325 µM,0.748
same,relative viability,[9]; first compound 2 µM,0.551
same,relative viability,[9]; first compound 6.325 µM,0.361
same,relative viability,[9]; first compound 20 µM,0.228
same,relative viability,[10]; first compound 0.2 µM,0.619
same,relative viability,[10]; first compound 0.6325 µM,0.804
same,relative viability,[10]; first compound 2 µM,0.508
same,relative viability,[10]; first compound 6.325 µM,0.449
same,relative viability,[10]; first compound 20 µM,0.23
same,relative viability,[11]; first compound 0.2 µM,0.453
same,relative viability,[11]; first compound 0.6325 µM,0.446
same,relative viability,[11]; first compound 2 µM,0.487
same,relative viability,[11]; first compound 6.325 µM,0.386
same,relative viability,[11]; first compound 20 µM,0.161
same,relative viability,[12]; first compound 0.2 µM,0.752
same,relative viability,[12]; first compound 0.6325 µM,0.54
same,relative viability,[12]; first compound 2 µM,0.48
same,relative viability,[12]; first compound 6.325 µM,0.37
same,relative viability,[12]; first compound 20 µM,0.21
same,relative viability,[13]; first compound 0.2 µM,0.594
same,relative viability,[13]; first compound 0.6325 µM,0.552
same,relative viability,[13]; first compound 2 µM,0.562
same,relative viability,[13]; first compound 6.325 µM,0.466
same,relative viability,[13]; first compound 20 µM,0.173
same,relative viability,[14]; first compound 0.2 µM,0.218
same,relative viability,[14]; first compound 0.6325 µM,0.302
same,relative viability,[14]; first compound 2 µM,0.317
same,relative viability,[14]; first compound 6.325 µM,0.31
same,relative viability,[14]; first compound 20 µM,0.179
same,relative viability,[15]; first compound 0.2 µM,0.646
same,relative viability,[15]; first compound 0.6325 µM,0.651
same,relative viability,[15]; first compound 2 µM,0.546
same,relative viability,[15]; first compound 6.325 µM,0.61
same,relative viability,[15]; first compound 20 µM,0.597
same,relative viability,[16]; first compound 0.2 µM,0.786
same,relative viability,[16]; first compound 0.6325 µM,0.661
same,relative viability,[16]; first compound 2 µM,0.716
same,relative viability,[16]; first compound 6.325 µM,0.757
same,relative viability,[16]; first compound 20 µM,0.808
same,relative viability,[17]; first compound 0.2 µM,0.304
same,relative viability,[17]; first compound 0.6325 µM,0.316
same,relative viability,[17]; first compound 2 µM,0.24
same,relative viability,[17]; first compound 6.325 µM,0.186
same,relative viability,[17]; first compound 20 µM,0.159
same,relative viability,[18]; first compound 0.2 µM,0.349
same,relative viability,[18]; first compound 0.6325 µM,0.57
same,relative viability,[18]; first compound 2 µM,0.545
same,relative viability,[18]; first compound 6.325 µM,0.484
same,relative viability,[18]; first compound 20 µM,0.411
same,relative viability,[19]; first compound 0.2 µM,0.788
same,relative viability,[19]; first compound 0.6325 µM,0.698
same,relative viability,[19]; first compound 2 µM,0.93
same,relative viability,[19]; first compound 6.325 µM,0.743
same,relative viability,[19]; first compound 20 µM,0.585
same,relative viability,[20]; first compound 0.2 µM,0.591
same,relative viability,[20]; first compound 2 µM,0.558
same,relative viability,[20]; first compound 6.325 µM,0.514
same,relative viability,[20]; first compound 20 µM,0.391
same,relative viability,[21]; first compound 0.2 µM,0.216
same,relative viability,[21]; first compound 2 µM,0.228
same,relative viability,[21]; first compound 6.325 µM,0.24
same,relative viability,[21]; first compound 20 µM,0.181
same,relative viability,[22]; first compound 0.2 µM,0.356
same,relative viability,[22]; first compound 0.6325 µM,0.424
same,relative viability,[22]; first compound 2 µM,0.339
same,relative viability,[22]; first compound 6.325 µM,0.29
same,relative viability,[22]; first compound 20 µM,0.292

# From the supplement of paper PMC10307832
